Experimental data taken from patent US20130225615A1, “2-CYCLOQUINAZOLINE DERIVATIVES AND METHODS OF USE THEREOF” (AMBIT BIOSCIENCES CORPORATION, priority 2010, published 2013).

Key:
JAK3 = molecular target: T1, JAK3 (Homo sapiens, UniProt P52333); assay: Competition binding assay, JAK3
T1 construct: made in house
T1 sequence (P52333 1-1124): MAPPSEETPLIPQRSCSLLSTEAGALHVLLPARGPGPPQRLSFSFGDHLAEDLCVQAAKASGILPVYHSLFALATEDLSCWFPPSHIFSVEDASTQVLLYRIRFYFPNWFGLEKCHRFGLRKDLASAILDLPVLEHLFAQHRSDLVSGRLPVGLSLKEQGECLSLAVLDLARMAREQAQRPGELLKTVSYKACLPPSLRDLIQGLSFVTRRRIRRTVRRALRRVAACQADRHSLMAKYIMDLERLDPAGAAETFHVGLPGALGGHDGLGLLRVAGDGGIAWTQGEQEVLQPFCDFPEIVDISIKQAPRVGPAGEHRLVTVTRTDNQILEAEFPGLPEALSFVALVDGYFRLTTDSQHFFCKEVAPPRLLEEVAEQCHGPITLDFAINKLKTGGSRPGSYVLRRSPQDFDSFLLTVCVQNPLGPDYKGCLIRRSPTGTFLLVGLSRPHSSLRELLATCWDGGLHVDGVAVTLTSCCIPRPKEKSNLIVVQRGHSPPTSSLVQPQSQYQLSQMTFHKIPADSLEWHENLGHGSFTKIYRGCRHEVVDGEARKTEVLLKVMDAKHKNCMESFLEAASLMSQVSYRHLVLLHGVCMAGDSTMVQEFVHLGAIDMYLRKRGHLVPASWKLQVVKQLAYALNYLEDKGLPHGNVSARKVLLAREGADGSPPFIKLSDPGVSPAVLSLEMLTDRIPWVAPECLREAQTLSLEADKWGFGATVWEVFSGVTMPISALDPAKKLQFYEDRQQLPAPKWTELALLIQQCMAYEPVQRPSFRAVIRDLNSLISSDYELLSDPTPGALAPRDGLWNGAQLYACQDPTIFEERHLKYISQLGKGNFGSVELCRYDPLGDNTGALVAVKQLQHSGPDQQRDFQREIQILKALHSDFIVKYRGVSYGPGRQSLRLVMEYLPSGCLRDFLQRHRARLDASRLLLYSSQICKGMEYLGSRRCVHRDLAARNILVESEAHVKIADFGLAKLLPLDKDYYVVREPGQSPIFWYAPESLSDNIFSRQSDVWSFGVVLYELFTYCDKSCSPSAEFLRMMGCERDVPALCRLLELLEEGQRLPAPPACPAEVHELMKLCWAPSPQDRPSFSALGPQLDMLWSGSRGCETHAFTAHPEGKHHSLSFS
Text: (§1) Determination of Binding Constants (Kd) of the Compounds Against JAK Kinases
(§2) Competition binding assays used herein were developed, validated and performed as described in Fabian et al., Nature Biotechnology 2005, 23,329-336. Kinases were produced as fusions to T7 phage (See, Fabian et al. or WO04/015142) or alternatively, the kinases were expressed in HEK-293 cells and subsequently tagged with DNA for PCR detection (See, WO08/005,310). For the binding assays, streptavidin-coated magnetic beads were treated with biotinylated affinity ligands for 30 min at rt to generate affinity resins. The liganded beads were blocked with excess biotin and washed with blocking buffer (SeaBlock (Pierce), 1% BSA, 0.05% Tween 20, 1 mM DTT) to remove unbound ligand and to reduce non-specific binding. Binding reactions were assembled by combining kinase, liganded affinity beads, and test compounds in 1× binding buffer (20% SeaBlock, 0.17×PBS, 0.05% Tween 20, 6 mM DTT). Test compounds were prepared as 100× stocks in DMSO and rapidly diluted into the aqueous environment. DMSO was added to control assays lacking a test compound. Primary screen interactions were performed in polypropylene 384-well plates in a final volume of 34 μL, while Kd determinations were performed in polystyrene 96-well plates in a final volume of 135 μL. The assay plates were incubated at room temperature with shaking for 1 hour, long enough for binding reactions to reach equilibrium, and the affinity beads were washed extensively with wash buffer (1×PBS, 0.05% Tween 20) to remove unbound protein. The beads were then resuspended in elution buffer (1×PBS, 0.05% Tween 20, 2 μM non-biotinylated affinity ligand) and incubated at room temperature with shaking for 30 min. The kinase concentration in the eluates was measured by quantitative PCR. Each kinase was tested individually against each compound. Kds were determined using eleven serial threefold dilutions. A selectivity score, which is a quantitative measure of selectivity of a compound against a panel of enzymes, may be calculated for a compound by dividing the number of enzymes for which a compound meets a set criteria, (for example, a binding constant of 100 nM or less), by the total number of enzymes tested.

[1] = test system: panel of distinct kinases excluding mutant variants, typically 359 or 386 kinases; assay: Kinase selectivity score S10 from binding panel; conditions: compound at 10 μM; fraction of kinases with inhibition of 90% or greater
Experimental: as §2

TYK2 = molecular target: T2, TYK2 (Homo sapiens, UniProt P29597); assay: Competition binding assay, TYK2
T2 construct: made in house
Text: as §1, §2

[2] = test system: GM-CSFR/JAK2/STAT5 pathway in CSTF-1 cells; assay: CSTF-1 cell-based reporter assay (beta-lactamase, GM-CSF stimulated); conditions: Homo sapiens; GM-CSF at 2 ng/mL, 4 hours; read-out: Cell Assay: CS TF-1 reporter assay IC50
Experimental: CSTF-1 Cell-Based Reporter Assay
CSTF-1 cells are derived from the human erythroleukemia cell line that is growth dependent on GM-CSF and has an intact GM-CSFR/JAK2/STAT5 pathway. The cell line contains stably integrated beta-lactamase reporter gene under the control of the […] (irf 1) response element recognized by the activated transcription factor STATS. csTF-1 cells (Invitrogen K1219) were washed with assay media (97% OPTIMEM/0.5% dialyzed FBS/0.1 mM NEAA/1 mM Na pyr/P/S) and seeded in the same media at 5×10^5 cell/mL in T150 flask. After 16 hour incubation, cells were seeded at 2×10^5 cell/well in 50 μl volume, into Costar, clear bottom, 96-well assay plates. Serial dilutions of compounds were added to the plates with final DMSO concentration at 0.5% and GM-CSF at 2 ng/mL and the plates were then incubated at […] and 5% CO2 for 4 hours. The plates were brought to room temperature before adding Substrate Mixture according to manufacturer's protocol (Invitrogen, Catalog #K1085). The assay plates containing the substrate mixture were incubated in the dark at room temperature for 2 hours. Blue and green fluorescence was measured with excitation at 409 nm and emission at 460 nm (for blue) and excitation at 409 nm and emission at 530 nm (for green) using Spectra Max Gemini EM.

JAK2 = molecular target: T3, JAK2 (Homo sapiens, UniProt O60674); assay: Competition binding assay, JAK2
T3 construct: made in house
Text: as §1, §2

T3 sequence (O60674 whole entry): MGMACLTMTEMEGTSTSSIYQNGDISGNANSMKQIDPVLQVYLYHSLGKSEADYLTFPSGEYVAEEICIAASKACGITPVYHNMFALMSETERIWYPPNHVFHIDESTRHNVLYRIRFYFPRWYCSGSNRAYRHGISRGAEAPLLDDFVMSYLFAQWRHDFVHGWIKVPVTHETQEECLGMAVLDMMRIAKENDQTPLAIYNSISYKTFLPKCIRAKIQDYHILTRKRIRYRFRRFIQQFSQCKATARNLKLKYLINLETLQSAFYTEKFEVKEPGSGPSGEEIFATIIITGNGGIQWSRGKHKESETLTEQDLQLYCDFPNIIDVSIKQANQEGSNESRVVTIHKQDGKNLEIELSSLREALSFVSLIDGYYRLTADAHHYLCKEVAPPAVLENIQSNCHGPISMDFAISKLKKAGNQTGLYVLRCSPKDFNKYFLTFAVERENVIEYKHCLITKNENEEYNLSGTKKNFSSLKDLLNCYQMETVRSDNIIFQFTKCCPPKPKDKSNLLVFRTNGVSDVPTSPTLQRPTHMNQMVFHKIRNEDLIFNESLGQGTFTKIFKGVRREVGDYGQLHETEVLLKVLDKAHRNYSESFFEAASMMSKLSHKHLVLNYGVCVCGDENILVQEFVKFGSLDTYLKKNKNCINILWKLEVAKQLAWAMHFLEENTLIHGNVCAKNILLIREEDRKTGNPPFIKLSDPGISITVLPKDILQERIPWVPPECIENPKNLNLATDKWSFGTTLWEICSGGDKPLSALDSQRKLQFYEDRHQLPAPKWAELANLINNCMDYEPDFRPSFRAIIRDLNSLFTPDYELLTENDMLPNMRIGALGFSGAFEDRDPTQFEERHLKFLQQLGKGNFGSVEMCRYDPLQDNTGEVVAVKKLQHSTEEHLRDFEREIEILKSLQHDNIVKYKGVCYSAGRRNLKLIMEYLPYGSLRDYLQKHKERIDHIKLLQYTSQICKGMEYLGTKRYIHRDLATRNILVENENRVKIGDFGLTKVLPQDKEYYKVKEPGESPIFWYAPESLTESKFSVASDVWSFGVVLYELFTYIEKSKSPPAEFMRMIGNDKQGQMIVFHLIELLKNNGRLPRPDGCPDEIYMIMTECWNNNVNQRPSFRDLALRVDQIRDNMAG
T2 sequence (P29597 whole entry): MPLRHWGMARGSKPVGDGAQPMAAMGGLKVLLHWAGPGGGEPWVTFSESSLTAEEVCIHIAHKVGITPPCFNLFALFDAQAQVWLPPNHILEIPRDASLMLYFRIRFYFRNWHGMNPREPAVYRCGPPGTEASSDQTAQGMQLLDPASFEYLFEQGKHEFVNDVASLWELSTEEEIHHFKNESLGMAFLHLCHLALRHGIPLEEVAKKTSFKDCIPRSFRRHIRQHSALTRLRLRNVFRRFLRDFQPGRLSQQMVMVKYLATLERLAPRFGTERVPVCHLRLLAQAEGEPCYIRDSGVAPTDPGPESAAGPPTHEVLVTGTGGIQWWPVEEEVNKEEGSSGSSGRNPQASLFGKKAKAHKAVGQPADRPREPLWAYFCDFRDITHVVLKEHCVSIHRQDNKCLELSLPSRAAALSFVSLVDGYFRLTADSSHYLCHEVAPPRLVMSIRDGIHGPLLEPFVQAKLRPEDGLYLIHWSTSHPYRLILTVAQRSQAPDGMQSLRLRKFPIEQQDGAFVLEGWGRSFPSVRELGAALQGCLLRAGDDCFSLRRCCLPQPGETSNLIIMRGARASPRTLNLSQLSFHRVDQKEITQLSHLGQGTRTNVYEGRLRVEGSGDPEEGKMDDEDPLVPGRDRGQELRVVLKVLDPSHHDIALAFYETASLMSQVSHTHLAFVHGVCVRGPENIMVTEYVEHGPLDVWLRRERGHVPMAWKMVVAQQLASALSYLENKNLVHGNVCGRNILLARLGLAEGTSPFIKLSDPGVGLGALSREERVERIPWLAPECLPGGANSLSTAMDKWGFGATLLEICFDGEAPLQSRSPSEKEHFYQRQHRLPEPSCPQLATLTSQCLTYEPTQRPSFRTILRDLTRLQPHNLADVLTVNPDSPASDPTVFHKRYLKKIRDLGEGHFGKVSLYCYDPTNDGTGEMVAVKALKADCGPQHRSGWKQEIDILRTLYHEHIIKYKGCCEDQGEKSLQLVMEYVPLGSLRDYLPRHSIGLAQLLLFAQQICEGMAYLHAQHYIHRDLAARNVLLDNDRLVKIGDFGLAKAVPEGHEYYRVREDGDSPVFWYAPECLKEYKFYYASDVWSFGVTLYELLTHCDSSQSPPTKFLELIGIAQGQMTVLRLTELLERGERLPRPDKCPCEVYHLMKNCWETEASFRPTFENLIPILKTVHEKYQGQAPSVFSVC

SMILES	Kd (JAK3) [nM]	S-Score: S(10) at 10 μM [1]	Kd (TYK2) [nM]	IC50 [2] [nM]	Kd (JAK2) [nM]
Cc1cc(Nc2nc([C@]3(c4ccc(F)cc4)C[C@H](O)C3)nc3ccccc23)n[nH]1 [Example 1, (1S,3S)-3-(4-fluorophenyl)-3-(4-(5-methyl-1H-pyrazol-3-ylamino)quinazolin-2-yl)cyclobutanol]	10 to 100	A (A≦0.3)	10 to 100	100 to 500	≤ 1
Cc1cc(Nc2nc([C@]3(c4ccc(F)cc4)C[C@@H](F)C3)nc3ccccc23)n[nH]1 [Example 2, 2-((1R,3R)-3-fluoro-1-(4-fluorophenyl)cyclobutyl)-N-(5-methyl-1H-pyrazol-3-yl)quinazolin-4-amine]	10 to 100	A (A≦0.3)	10 to 100	> 500	1 to 10
Cc1cc(Nc2nc([C@]3(c4ccc(F)cc4)C[C@@H](O)C3)nc3ccccc23)n[nH]1 [Example 3, (1R,3R)-3-(4-fluorophenyl)-3-(4-((5-methyl-1H-pyrazol-3-yl)amino)quinazolin-2-yl)cyclobutanol]	10 to 100	A (A≦0.3)	10 to 100	100 to 500	≤ 1
Cc1cc(Nc2nc(C3(c4ccc(F)cc4)CCOCC3)nc3ccccc23)n[nH]1 [Example 4, 2-(4-(4-fluorophenyl)tetrahydro-2H-pyran-4-yl)-N-(5-methyl-1H-pyrazol-3-yl)quinazolin-4-amine]	10 to 100	A (A≦0.3)	≤ 10	100 to 500	1 to 10
